{"source": "patent US8198252B2", "about": "“SIRNA inhibition of PI3K P85, P110, and AKT2 and methods of use” (Board of Regents, The University of Texas System, priority 2006, dated 2012)", "key": {"[1]": {"tested_on": "HT29-GFP cells", "assay": "Liver metastasis establishment by cells transfected with siRNA in vitro", "format": "in vivo, mice", "conditions": "three weeks", "protocol": "(§1) In Vivo Experiments. For in vivo studies, 4- to 6-week-old male nude^nu/nu mice were obtained from Harlan Sprague Dawley (Indianapolis, Ind.) and housed in clean, pathogen-free rooms in an environment with controlled temperature (22° C.), humidity, and a 12 hours light/dark cycle. The mice were fed standard chow (Formula Chow 5008; Purina Mills, St. Louis, Mo.) and tap water ad libitum and allowed to acclimate for 1 week. All studies were approved by the Institutional Animal Care and Use Committee of UTMB. Tumor cells were injected intrasplenically by methods previously described (Bruns et al., Neoplasia, 1:50-62 (1999)). Briefly, mice were anesthetized with halothane, a small left abdominal flank incision was created, and the spleen was exteriorized. Transfectants were harvested using only trypsin and resuspended as a single-cell suspension in Hanks Balanced Salt Solution, free of Mg^2+ and Ca^2+. Tumor cells (5×10^6 cells/400 μL) were injected into the spleen with a 27-gauge needle. The spleen was returned to the abdomen, and the wound was closed in one layer with wound clips. The mice were observed over the indicated time period using the Illumatool TLS (Lightools Research, Encinitas, Calif.). Animals were randomized into 3 experimental groups (5 animals per group) to receive p85α, p110α, or NTC siSTABLE siRNA (20 μg/mice, qod) by hydrodynamic tail vein injection (Watanabe et al., Gastroenterology, 128:1391-1404 (2005)) 24 hours after operation; mice were killed 35 days later. Experiments were performed in duplicate.\n(§2) Methods of cells transfection and liver metastasis establishment are described in Example 1.\n(§3) Akt2 is essential for colorectal cancer metastasis establishment. To determine whether Akt2 plays a causal role in colorectal cancer metastasis, we tested whether inhibition of Akt2 expression in the highly metastatic colorectal cancer cells would affect their metastatic ability. HT29^GFP or KM20^GFP cells were transfected with NTC (purchased from Dharmacon Inc.) or Akt2 siRNA (GUACUUCGAUGAUGAAUUU, SEQ ID NO:20) in vitro and inoculated intrasplenically (5×10^6) 60 hours later. To avoid intrasplenic tumor growth, the spleen was removed after 24 h. Animals were monitored individually for metastatic tumor growth using the Illumatool TLS. Three weeks after implantation the mice were sacrificed and the liver was examined for metastatic lesions by inspection of GFP fluorescence. […] In addition, the sizes of individual metastatic nodules present in the liver of both groups of mice were very similar. […] We also suspect that incomplete suppression of Akt2 by siRNA in a small subset of cells account for the residual ability of such cells to form liver metastasis."}, "[2]": {"tested_on": "KM20-GFP cells", "assay": "Liver metastasis establishment by cells transfected with siRNA in vitro", "format": "in vivo, mice", "conditions": "three weeks", "protocol": "as §1, §2, §3"}, "[3]": {"tested_on": "Akt2", "assay": "Western blot of Akt2 in the cells used for intrasplenic inoculation", "format": "cell-based, human", "conditions": "before (0 h) or after (2 h) surgical procedure", "protocol": "Protein Preparation and Western Immunoblot. Western immunoblot analyses were performed as described previously (Wang et al., Clin Cancer Res. 8:1940-1947 (2002)). Cells were lysed with TNN buffer at 4° C. for 30 minutes. Lysates were clarified by centrifugation (10,000 g for 30 minutes at 4° C.) and protein concentrations determined using the method of Bradford (Bradford, Anal Biochem., 72:248-254 (1976)). Briefly, total protein (60 μg) was resolved on a 10% polyacrylamide gel and transferred to Immobilon-P […] membranes. Filters were incubated overnight at 4° C. in blotting solution (Tris-buffered saline containing 5% nonfat dried milk and 0.1% Tween 20), followed by a 1-hour incubation with primary antibodies. Filters were washed 3 times in a blocking solution and incubated with horseradish peroxidase-conjugated secondary antibodies for 1 hour. After 3 additional washes, the immune complexes were visualized by ECL detection.\nAkt2 is essential for colorectal cancer metastasis establishment. […] Animals were monitored individually for metastatic tumor growth using the Illumatool TLS. Three weeks after implantation the mice were sacrificed and the liver was examined for metastatic lesions by inspection of GFP fluorescence. […]"}, "[4]": {"conditions": "5×10^6 intrasplenically 60 hours later, compared with NTC siRNA"}}}
{"sequence": "GUACUUCGAUGAUGAAUUU [Akt2 siRNA]", "values": [{"measurement": "macroscopically visible metastases in the liver", "setting": "[1]; [4]", "result": "formed very few metastases"}, {"measurement": "number of micrometastatic lesions in the liver (histological analysis)", "setting": "[1]", "result": "drastically reduced"}, {"measurement": "sizes of individual metastatic nodules in the liver, compared with NTC group", "setting": "[1]", "result": "very similar"}, {"measurement": "macroscopically visible metastases in the liver", "setting": "[2]; [4]", "result": "formed very few metastases"}, {"measurement": "number of micrometastatic lesions in the liver (histological analysis)", "setting": "[2]", "result": "drastically reduced"}, {"measurement": "sizes of individual metastatic nodules in the liver, compared with NTC group", "setting": "[2]", "result": "very similar"}, {"measurement": "Akt2 expression", "setting": "[3]; HT29-GFP cells used for intrasplenic inoculation", "result": "confirmed Akt2 downregulation"}, {"measurement": "Akt2 expression", "setting": "[3]; KM20-GFP cells used for intrasplenic inoculation", "result": "confirmed Akt2 downregulation"}]}
